Measured values: patent US20240199584A1, “KRAS INHIBITORS” (Bristol-Myers Squibb Company, priority 2022, published 2024)
Where two headings read alike, the source gives them in different places.

Columns and labels:
KRAS G12A = molecular target: T1, KRAS G12A (Homo sapiens, UniProt P01116, G12A); assay: Cellular KRAS:RAF Disruption Assay (NanoBRET), KRAS G12A; type: cell-based; details: HEK293 T cells co-expressing RAF1 and KRAS G12A, 24 hours; read-out: RAS::RAF binding via NanoBRET IC50, KRAS G12A
T1 construct: expressed in transfected cells
T1 sequence (P01116 1-188 isoform P01116-2 G12A): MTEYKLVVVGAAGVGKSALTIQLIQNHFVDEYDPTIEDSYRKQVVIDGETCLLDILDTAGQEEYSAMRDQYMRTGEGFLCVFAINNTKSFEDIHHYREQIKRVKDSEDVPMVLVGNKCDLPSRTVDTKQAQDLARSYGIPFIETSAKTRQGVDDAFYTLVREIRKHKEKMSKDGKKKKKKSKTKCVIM
Method: (§1) Cellular KRAS:RAF Disruption Assay
(§2) Stable cell lines (HEK293 T) were generated to co-express RAF1 and mutant or wild type KRAS, as indicated, using the BiBRET vector (Promega). Engineered cell lines were suspended in media (OptiMEM, […]), plated in 384-well plates (8000 cells/well), and allowed to rest for 1.5 hours. Cells were treated with compounds for 24 hours, and NanoBRET NanoGlo substrate (Promega) was added per the manufacturer's instructions.

KRAS G12C = molecular target: T2, KRAS G12C (Homo sapiens, UniProt P01116, G12C); assay: Cellular KRAS:RAF Disruption Assay (NanoBRET), KRAS G12C; type: cell-based; details: HEK293 T cells co-expressing RAF1 and KRAS G12C, 24 hours; read-out: RAS::RAF binding via NanoBRET IC50, KRAS G12C
T2 construct: expressed in transfected cells
T2 sequence (P01116 1-188 isoform P01116-2 G12C): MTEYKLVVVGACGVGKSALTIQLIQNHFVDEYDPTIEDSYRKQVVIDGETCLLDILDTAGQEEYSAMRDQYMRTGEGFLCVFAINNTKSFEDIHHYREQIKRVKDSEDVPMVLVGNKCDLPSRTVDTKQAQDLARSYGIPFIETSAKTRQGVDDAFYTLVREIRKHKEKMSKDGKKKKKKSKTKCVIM
Method: as §1, §2

KRAS WT = molecular target: T3, KRAS WT (Homo sapiens, UniProt P01116); assay: Cellular KRAS:RAF Disruption Assay (NanoBRET), KRAS WT; type: cell-based; details: HEK293 T cells co-expressing RAF1 and wild type KRAS, 24 hours; read-out: RAS::RAF binding via NanoBRET IC50, KRAS WT
T3 construct: expressed in transfected cells
T3 sequence (P01116 1-188 isoform P01116-2): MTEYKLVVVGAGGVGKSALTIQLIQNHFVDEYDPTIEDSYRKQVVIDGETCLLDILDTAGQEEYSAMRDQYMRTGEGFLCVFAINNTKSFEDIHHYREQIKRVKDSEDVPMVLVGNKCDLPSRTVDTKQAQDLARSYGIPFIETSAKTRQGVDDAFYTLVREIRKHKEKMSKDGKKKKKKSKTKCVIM
Method: as §1, §2

KRAS G12V = molecular target: T4, KRAS G12V (Homo sapiens, UniProt P01116, G12V); assay: Cellular KRAS:RAF Disruption Assay (NanoBRET), KRAS G12V; type: cell-based; details: HEK293 T cells co-expressing RAF1 and KRAS G12V, 24 hours; read-out: RAS::RAF binding via NanoBRET IC50, KRAS G12V
T4 construct: expressed in transfected cells
T4 sequence (P01116 1-188 isoform P01116-2 G12V): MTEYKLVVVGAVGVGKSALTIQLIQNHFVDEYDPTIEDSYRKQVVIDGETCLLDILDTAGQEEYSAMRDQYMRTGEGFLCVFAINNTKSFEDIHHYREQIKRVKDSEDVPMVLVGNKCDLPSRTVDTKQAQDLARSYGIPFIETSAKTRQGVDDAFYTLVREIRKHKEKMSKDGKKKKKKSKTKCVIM
Method: as §1, §2

KRAS Q61R = molecular target: T5, KRAS Q61R (Homo sapiens, UniProt P01116, Q61R); assay: Cellular KRAS:RAF Disruption Assay (NanoBRET), KRAS Q61R; type: cell-based; details: HEK293 T cells co-expressing RAF1 and KRAS Q61R, 24 hours; read-out: RAS::RAF binding via NanoBRET IC50, KRAS Q61R
T5 construct: expressed in transfected cells
T5 sequence (P01116 1-188 isoform P01116-2 Q61R): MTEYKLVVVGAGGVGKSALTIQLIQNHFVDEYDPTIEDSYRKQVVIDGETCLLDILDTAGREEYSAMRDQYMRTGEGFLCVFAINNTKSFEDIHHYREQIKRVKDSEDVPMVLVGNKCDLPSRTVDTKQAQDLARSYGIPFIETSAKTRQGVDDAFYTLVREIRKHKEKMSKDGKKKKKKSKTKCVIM
Method: as §1, §2

KRAS G12R = molecular target: T6, KRAS G12R (Homo sapiens, UniProt P01116, G12R); assay: Cellular KRAS:RAF Disruption Assay (NanoBRET), KRAS G12R; type: cell-based; details: HEK293 T cells co-expressing RAF1 and KRAS G12R, 24 hours; read-out: RAS::RAF binding via NanoBRET IC50, KRAS G12R
T6 construct: expressed in transfected cells
T6 sequence (P01116 1-188 isoform P01116-2 G12R): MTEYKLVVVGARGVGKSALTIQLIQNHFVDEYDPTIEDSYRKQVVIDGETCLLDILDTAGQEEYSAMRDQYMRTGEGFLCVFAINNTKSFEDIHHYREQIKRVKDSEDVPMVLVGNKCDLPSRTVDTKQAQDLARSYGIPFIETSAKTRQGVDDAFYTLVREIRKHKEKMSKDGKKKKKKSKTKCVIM
Method: as §1, §2

KRAS G13D = molecular target: T7, KRAS G13D (Homo sapiens, UniProt P01116, G13D); assay: Cellular KRAS:RAF Disruption Assay (NanoBRET), KRAS G13D; type: cell-based; details: HEK293 T cells co-expressing RAF1 and KRAS G13D, 24 hours; read-out: RAS::RAF binding via NanoBRET IC50, KRAS G13D
T7 construct: expressed in transfected cells
T7 sequence (P01116 1-188 isoform P01116-2 G13D): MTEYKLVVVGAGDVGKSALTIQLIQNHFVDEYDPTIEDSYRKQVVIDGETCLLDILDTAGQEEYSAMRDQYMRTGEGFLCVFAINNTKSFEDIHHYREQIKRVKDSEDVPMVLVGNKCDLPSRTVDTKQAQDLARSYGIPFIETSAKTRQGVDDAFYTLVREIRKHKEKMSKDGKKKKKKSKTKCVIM
Method: as §1, §2

KRAS Q61H = molecular target: T8, KRAS Q61H (Homo sapiens, UniProt P01116, Q61H); assay: Cellular KRAS:RAF Disruption Assay (NanoBRET), KRAS Q61H; type: cell-based; details: HEK293 T cells co-expressing RAF1 and KRAS Q61H, 24 hours; read-out: RAS::RAF binding via NanoBRET IC50, KRAS Q61H
T8 construct: expressed in transfected cells
T8 sequence (P01116 1-188 isoform P01116-2 Q61H): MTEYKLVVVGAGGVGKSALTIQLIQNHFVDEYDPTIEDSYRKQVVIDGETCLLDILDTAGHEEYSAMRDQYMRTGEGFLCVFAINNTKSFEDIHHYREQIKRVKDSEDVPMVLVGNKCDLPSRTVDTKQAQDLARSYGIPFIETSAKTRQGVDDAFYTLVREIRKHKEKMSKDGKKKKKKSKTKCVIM
Method: as §1, §2

KRAS G12S = molecular target: T9, KRAS G12S (Homo sapiens, UniProt P01116, G12S); assay: Cellular KRAS:RAF Disruption Assay (NanoBRET), KRAS G12S; type: cell-based; details: HEK293 T cells co-expressing RAF1 and KRAS G12S, 24 hours; read-out: RAS::RAF binding via NanoBRET IC50, KRAS G12S
T9 construct: expressed in transfected cells
T9 sequence (P01116 1-188 isoform P01116-2 G12S): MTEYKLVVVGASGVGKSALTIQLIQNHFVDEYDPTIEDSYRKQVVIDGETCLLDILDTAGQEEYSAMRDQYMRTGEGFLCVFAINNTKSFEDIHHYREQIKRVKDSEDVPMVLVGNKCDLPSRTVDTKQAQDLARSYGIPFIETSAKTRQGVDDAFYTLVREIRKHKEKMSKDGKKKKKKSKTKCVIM
Method: as §1, §2

KRAS A146T = molecular target: T10, KRAS A146T (Homo sapiens, UniProt P01116, A146T); assay: Cellular KRAS:RAF Disruption Assay (NanoBRET), KRAS A146T; type: cell-based; details: HEK293 T cells co-expressing RAF1 and KRAS A146T, 24 hours; read-out: RAS::RAF binding via NanoBRET IC50, KRAS A146T
T10 construct: expressed in transfected cells
T10 sequence (P01116 1-188 isoform P01116-2 A146T): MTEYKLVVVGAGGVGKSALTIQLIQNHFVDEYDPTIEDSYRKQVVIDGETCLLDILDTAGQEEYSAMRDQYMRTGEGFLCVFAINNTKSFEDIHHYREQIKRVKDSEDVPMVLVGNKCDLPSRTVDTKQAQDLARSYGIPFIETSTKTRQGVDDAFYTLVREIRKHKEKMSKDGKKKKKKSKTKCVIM
Method: as §1, §2

KRAS G12D [1] = molecular target: T11, KRAS G12D (Homo sapiens, UniProt P01116, G12D); assay: biochemical
T11 sequence (P01116 1-188 isoform P01116-2 G12D): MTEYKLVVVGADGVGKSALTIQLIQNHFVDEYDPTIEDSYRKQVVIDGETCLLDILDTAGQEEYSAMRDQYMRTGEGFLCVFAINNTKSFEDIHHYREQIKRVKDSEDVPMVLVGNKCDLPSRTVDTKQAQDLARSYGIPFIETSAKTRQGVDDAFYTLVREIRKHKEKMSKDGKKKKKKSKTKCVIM
Method: Recombinant GST-RAF1 RBD (Ras binding domain) (9 nM) was added, followed by the addition of SA-Tb (0.25 nM), and the reaction mixture was incubated for 3 hours. HTRF (Homogeneous Time-Resolved Fluorescence) signal was measured (PerkinElmer Envision), the signal ratio (λem 520/λem 495) was calculated, and IC50 values were calculated from the dose-response curve.

KRAS G12D [2] = molecular target: T11, KRAS G12D; assay: biochemical; remark: listed apart in the source
Method: BIODIPY-labeled GDP (BIODIPY: dipyrrometheneboron difluoride) (400 nM) and recombinant SOS (son of sevenless protein) (10 nM) were added, and the reaction was incubated for 30 minutes. HTRF signal was measured (PerkinElmer Envision), the signal ratio (λem 520/λem 495) was calculated, and IC50 values were calculated from the dose-response curve.

Structure (SMILES) | IC50 (KRAS G12A) | IC50 (KRAS G12C) | IC50 (KRAS WT) | IC50 (KRAS G12V) | IC50 (KRAS Q61R) | IC50 (KRAS G12R) | IC50 (KRAS G13D) | IC50 (KRAS Q61H) | IC50 (KRAS G12S) | IC50 (KRAS A146T) | IC50 (KRAS G12D [1]) | IC50 (KRAS G12D [2])
C#Cc1c(F)ccc2cc(O)cc(-c3ncc4c(N5CCOC6CC65)nc(OC[C@@]56CCCN5C[C@H](F)C6)nc4c3F)c12 (stereo partly drawn) [Example 1-100, 4-(2-{[(2R,7aS)-2-fluoro-hexahydro-1H-pyrrolizin-7a-yl]methoxy}-8-fluoro-4-{2-oxa-5-azabicyclo[4.1.0]heptan-5-yl}pyrido[4,3-d]pyrimidin-7-yl)-5-ethynyl-6-fluoronaphthalen-2-ol] | 4.6 nM | 12.9 nM | 12.3 nM | 118 nM | – | – | – | – | – | – | – | –
C#Cc1c(F)ccc2cc(O)cc(-c3ccc4c(N5CCCOCC5)nc(OC[C@@]56CCCN5C[C@H](F)C6)nc4c3F)c12 [Example 2-2, 4-(2-{[(2R,7aS)-2-fluoro-hexahydro-1H-pyrrolizin-7a-yl]methoxy}-8-fluoro-4-(1,4-oxazepan-4-yl)quinazolin-7-yl)-5-ethynyl-6-fluoronaphthalen-2-ol] | 3 nM | 5 nM | 2 nM | 26 nM | 2.29 µM | 0.204 µM | 8 nM | 16 nM | 6 nM | 17 nM | – | –
C#Cc1c(F)ccc2cc(O)cc(-c3ccc4c(N5CC6CCC(C5)N6C(=O)C(F)(F)F)nc(OC[C@@]56CCCN5C[C@H](F)C6)nc4c3F)c12 [Example 7-3, 1-[3-(2-{[(2R,7aS)-2-fluoro-hexahydro-1H-pyrrolizin-7a-yl]methoxy}-7-(8-ethynyl-7-fluoro-3-hydroxynaphthalen-1-yl)-8-fluoroquinazolin-4-yl)-3,8-diazabicyclo[3.2.1]octan-8-yl]-2,2,2-trifluoroethan-1-one] | 144 nM | 367 nM | 40 nM | 680 nM | > 10 µM | 7.51 µM | 199 nM | 474 nM | 313 nM | 315 nM | – | –
C#Cc1c(F)ccc2cc(O)cc(-c3ncc4c(N5CCOCC5)nc(OC[C@@]56CCCN5C[C@H](F)C6)nc4c3F)c12 [Example 1-1, 4-(2-{[(2R,7aS)-2-fluoro-hexahydro-1H-pyrrolizin-7a-yl]methoxy}-8-fluoro-4-(morpholin-4-yl)pyrido[4,3-d]pyrimidin-7-yl)-5-ethynyl-6-fluoronaphthalen-2-ol] | 16 nM | 25 nM | 6 nM | 199 nM | > 10 µM | 5.3 µM | 45 nM | 99 nM | 29 nM | 76 nM | – | –
C#Cc1c(F)ccc2cc(O)cc(-c3ncc4c(N5CCCC(C)(O)C5)nc(OC[C@]56CCC[C@H]5N(C)CCC6)nc4c3F)c12 (single isomer, unassigned) [Example 1-89] | 4.8 nM | 9.3 nM | 8.5 nM | 20.1 nM | – | – | – | – | – | – | – | –
C#Cc1c(F)ccc2cc(O)cc(-c3ncc4c(N5CCOC6CC65)nc(OC[C@]56CCC[C@H]5N(C)CCC6)nc4c3F)c12 (single isomer, unassigned) [Example 1-99] | 12 nM | 11 nM | 3 nM | 126 nM | – | – | – | – | – | – | – | –
C#Cc1c(F)ccc2cc(O)cc(-c3ncc4c(N5CCOCC(F)(F)C5)nc(OC[C@]56CCC[C@H]5N(C)CCC6)nc4c3F)c12 [Example 1-107, 4-(2-{[(4aS,7aR)-1-methyl-octahydro-1H-cyclopenta[b]pyridin-4a-yl]methoxy}-4-(6,6-difluoro-1,4-oxazepan-4-yl)-8-fluoropyrido[4,3-d]pyrimidin-7-yl)-5-ethynyl-6-fluoronaphthalen-2-ol] | 5.3 nM | 9.8 nM | 9.7 nM | 133 nM | – | – | – | – | – | – | – | –
C#Cc1c(F)ccc2cc(O)cc(-c3ncc4c(N5CC6COC(C6)C5)nc(OC[C@@]56CCCN5C[C@H](F)C6)nc4c3F)c12 (stereo partly drawn) [Example 1-90, 4-(2-{[(2R,7aS)-2-fluoro-hexahydro-1H-pyrrolizin-7a-yl]methoxy}-8-fluoro-4-{6-oxa-3-azabicyclo [3.2.1]octan-3-yl}pyrido[4,3-d]pyrimidin-7-yl)-5-ethynyl-6-fluoronaphthalen-2-ol] | 19.5 nM | 41.6 nM | 11.9 nM | 197 nM | – | – | – | – | – | – | – | –
C#Cc1c(F)ccc2cc(O)cc(-c3ccc4c(N5CC6CCC(C5)N6C(=O)C(F)(F)F)nc(OC[C@]56CCC[C@H]5N(C)CCC6)nc4c3F)c12 [Example 7-7, 1-[3-(2-{[(4aS,7aR)-1-methyl-octahydro-1H-cyclopenta[b]pyridin-4a-yl]methoxy}-7-(8-ethynyl-7-fluoro-3-hydroxynaphthalen-1-yl)-8-fluoroquinazolin-4-yl)-3,8-diazabicyclo[3.2.1]octan-8-yl]-2,2,2-trifluoroethan-1-one] | 226 nM | 346 nM | 242 nM | > 5000 nM | > 5 µM | > 5 µM | 407 nM | 504 nM | 422 nM | 577 nM | 7 nM | < 2 nM
C#Cc1c(F)ccc2cc(O)cc(-c3ccc4c(N5CCCC(C)(O)C5)nc(OC[C@]56CCC[C@H]5N(C)CCC6)nc4c3F)c12 (stereo partly drawn) [Example 2-72, 1-(2-{[(4aS,7aR)-1-methyl-octahydro-1H-cyclopenta[b]pyridin-4a-yl]methoxy}-7-(8-ethynyl-7-fluoro-3-hydroxynaphthalen-1-yl)-8-fluoroquinazolin-4-yl)-3-methylpiperidin-3-ol] | 9 nM | 12.8 nM | 3.6 nM | 40.5 nM | – | – | – | – | – | – | – | –
C#Cc1c(F)ccc2cc(O)cc(-c3ccc4c(N5CCCOCC5)nc(OC[C@]56CCC[C@H]5N(C)CCC6)nc4c3F)c12 [Example 2-3, 4-(2-{[(4aS,7aR)-1-methyl-octahydro-1H-cyclopenta[b]pyridin-4a-yl]methoxy}-8-fluoro-4-(1,4-oxazepan-4-yl)quinazolin-7-yl)-5-ethynyl-6-fluoronaphthalen-2-ol] | 18 nM | 24 nM | 11 nM | 172 nM | > 5 µM | 1.07 µM | 49 nM | 72 nM | 39 nM | 81 nM | – | –
C#Cc1c(F)ccc2cc(O)cc(-c3ccc4c(N5C[C@@H]6C[C@H]5C(=O)N6)nc(OC[C@]56CCC[C@H]5N(C)CCC6)nc4c3F)c12 [Example 5-1, (1S,4S)-5-(2-{[(4aS,7aR)-1-methyl-octahydro-1H-cyclopenta[b]pyridin-4a-yl]methoxy}-7-(8-ethynyl-7-fluoro-3-hydroxynaphthalen-1-yl)-8-fluoroquinazolin-4-yl)-2,5-diazabicyclo[2.2.1]heptan-3-one] | 881 nM | 826 nM | 238 nM | 2510 nM | – | – | – | – | – | – | – | –
C#Cc1c(F)ccc2cc(O)cc(-c3ncc4c(N5C6COCC5C6)nc(OC[C@@]56CCCN5C[C@H](F)C6)nc4c3F)c12 [Example 1-35, 4-(2-{[(2R,7aS)-2-fluoro-hexahydro-1H-pyrrolizin-7a-yl]methoxy}-8-fluoro-4-{3-oxa-6-azabicyclo[3.1.1]heptan-6-yl}pyrido[4,3-d]pyrimidin-7-yl)-5-ethynyl-6-fluoronaphthalen-2-ol] | 10 nM | 12 nM | 13 nM | 32 nM | > 10 µM | 4.23 µM | 22 nM | 31 nM | 11 nM | 40 nM | – | –
